From US12662479B2 (Foghorn Therapeutics Inc., priority 2020, dated 2026)
Where a name gives a salt, the structure may show the parent alone.

Key:
[1] = target: T1, HiBit-BRM fusion protein (Homo sapiens, UniProt P51531); experiment: HiBiT-BRM cell-based degradation assay (Nano-Glo HiBiT Lytic Detection, 24 h); conditions: HeLa cells expressing HiBiT-BRM; for DC50: read-out: BRM HiBit Degradation IC50; for BRM HiBit Degradation Maximum measured: top dose 30 μM
T1 construct: expressed in transfected cells
T1 sequence (P51531 whole entry, the tested form may be a part): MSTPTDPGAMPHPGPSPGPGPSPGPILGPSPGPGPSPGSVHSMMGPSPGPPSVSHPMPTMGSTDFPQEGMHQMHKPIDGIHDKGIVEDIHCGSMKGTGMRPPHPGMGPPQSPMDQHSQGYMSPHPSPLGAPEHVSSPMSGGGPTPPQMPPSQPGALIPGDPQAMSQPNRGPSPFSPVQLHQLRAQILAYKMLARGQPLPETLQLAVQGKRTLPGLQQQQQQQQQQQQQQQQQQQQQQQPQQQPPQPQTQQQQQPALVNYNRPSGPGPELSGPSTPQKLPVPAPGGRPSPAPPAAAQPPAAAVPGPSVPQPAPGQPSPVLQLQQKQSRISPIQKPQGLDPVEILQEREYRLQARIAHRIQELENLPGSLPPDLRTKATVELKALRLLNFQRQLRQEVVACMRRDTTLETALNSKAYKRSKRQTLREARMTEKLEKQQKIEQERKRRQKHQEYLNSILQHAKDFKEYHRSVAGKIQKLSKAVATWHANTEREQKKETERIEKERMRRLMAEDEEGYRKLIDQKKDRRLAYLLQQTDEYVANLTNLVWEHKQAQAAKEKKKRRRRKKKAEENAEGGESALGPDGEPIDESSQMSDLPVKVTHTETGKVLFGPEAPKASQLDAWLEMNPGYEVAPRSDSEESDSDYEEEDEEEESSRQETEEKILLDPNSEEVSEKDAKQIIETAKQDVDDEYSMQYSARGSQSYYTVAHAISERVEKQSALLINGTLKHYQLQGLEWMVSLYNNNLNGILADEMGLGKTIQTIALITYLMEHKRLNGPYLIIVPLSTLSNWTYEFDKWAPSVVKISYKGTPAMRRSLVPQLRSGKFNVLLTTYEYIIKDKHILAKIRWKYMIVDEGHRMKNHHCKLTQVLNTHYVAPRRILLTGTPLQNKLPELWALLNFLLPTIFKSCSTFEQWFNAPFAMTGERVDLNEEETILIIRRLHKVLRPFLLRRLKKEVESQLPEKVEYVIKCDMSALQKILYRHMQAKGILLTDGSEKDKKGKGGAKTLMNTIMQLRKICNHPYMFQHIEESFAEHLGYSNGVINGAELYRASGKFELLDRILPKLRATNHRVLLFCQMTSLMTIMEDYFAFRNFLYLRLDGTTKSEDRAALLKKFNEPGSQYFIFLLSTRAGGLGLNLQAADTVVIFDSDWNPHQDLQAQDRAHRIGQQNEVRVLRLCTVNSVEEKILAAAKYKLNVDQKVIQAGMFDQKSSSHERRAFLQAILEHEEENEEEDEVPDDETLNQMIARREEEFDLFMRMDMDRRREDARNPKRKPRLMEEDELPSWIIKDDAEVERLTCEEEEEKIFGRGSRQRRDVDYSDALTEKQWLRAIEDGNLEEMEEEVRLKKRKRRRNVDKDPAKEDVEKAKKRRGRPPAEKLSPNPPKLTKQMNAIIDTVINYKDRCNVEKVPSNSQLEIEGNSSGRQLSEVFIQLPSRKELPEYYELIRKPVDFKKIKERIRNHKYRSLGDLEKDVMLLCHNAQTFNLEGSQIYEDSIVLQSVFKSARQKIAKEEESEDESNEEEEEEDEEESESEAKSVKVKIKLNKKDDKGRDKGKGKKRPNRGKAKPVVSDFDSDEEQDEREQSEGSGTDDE
Method in brief: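 Stable HiBiT-BRM HeLa line; 24 h compound exposure, top final 30 μM, 3-fold, 10 pts in duplicate. Lytic HiBiT/LgBiT luminescence readout. % degradation vs DMSO (0%) and 2 μM known BRM/BRG1 degrader (100%).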

[2] = target: T2, HiBit-BRG1 fusion protein (Homo sapiens, UniProt P51532); experiment: HiBiT-BRG1 cell-based degradation assay (Nano-Glo HiBiT Lytic Detection, 24 h); conditions: HeLa cells expressing HiBit-BRG1 and LgBit; for DC50: read-out: BRG1 HiBit Degradation IC50; for Dmax: HeLa, top dose 30 μM, read-out: BRG1 HiBit Degradation Maximum measured
T2 construct: expressed in transfected cells
T2 sequence (P51532 whole entry, the tested form may be a part): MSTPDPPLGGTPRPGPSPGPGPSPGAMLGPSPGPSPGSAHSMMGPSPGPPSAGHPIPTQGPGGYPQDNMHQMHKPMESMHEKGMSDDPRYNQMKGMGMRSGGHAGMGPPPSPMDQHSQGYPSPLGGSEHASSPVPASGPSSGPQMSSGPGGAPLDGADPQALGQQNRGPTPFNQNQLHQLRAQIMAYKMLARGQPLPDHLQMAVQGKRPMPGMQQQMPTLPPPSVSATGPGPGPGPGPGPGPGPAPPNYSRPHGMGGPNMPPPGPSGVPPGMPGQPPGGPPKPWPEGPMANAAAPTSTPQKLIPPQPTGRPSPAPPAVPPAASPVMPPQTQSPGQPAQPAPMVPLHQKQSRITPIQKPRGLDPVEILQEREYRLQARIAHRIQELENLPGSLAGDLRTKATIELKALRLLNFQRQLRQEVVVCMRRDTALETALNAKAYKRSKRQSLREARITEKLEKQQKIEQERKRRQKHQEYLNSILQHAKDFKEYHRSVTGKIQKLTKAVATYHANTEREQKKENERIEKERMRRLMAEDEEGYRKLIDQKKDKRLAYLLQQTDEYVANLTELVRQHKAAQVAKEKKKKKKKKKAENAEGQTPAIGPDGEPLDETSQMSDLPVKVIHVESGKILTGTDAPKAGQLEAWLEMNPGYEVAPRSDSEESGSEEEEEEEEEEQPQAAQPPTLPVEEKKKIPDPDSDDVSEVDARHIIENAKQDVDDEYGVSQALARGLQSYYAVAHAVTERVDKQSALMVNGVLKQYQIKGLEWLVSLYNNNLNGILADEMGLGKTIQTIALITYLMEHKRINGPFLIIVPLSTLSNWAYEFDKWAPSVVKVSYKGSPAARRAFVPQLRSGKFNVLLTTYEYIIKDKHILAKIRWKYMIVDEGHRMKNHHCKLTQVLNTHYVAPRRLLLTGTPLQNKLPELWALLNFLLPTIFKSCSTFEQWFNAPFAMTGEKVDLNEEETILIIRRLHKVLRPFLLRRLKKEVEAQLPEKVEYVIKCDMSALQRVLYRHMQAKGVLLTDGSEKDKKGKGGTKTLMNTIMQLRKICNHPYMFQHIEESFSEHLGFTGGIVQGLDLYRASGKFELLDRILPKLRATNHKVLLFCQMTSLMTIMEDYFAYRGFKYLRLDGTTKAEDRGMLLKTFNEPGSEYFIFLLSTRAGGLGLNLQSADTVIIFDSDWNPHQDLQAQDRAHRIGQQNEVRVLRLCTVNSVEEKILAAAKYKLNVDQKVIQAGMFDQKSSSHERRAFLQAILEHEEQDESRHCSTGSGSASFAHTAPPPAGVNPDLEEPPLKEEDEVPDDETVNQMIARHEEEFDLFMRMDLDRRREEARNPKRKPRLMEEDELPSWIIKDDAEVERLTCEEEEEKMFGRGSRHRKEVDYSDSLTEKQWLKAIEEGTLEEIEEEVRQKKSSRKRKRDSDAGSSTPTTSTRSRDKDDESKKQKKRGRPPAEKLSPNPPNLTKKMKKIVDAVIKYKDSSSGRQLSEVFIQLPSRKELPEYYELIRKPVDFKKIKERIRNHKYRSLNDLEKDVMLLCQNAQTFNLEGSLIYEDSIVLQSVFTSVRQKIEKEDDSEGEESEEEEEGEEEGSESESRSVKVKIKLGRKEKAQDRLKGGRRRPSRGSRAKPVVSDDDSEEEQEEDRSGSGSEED
Method in brief: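 Degradation is scaled from DMSO-treated cells (0%) to cells given 2 μM of a known BRM/BRG1 degrader (100%). HeLa cells stably carrying HiBiT-BRG1 plus LgBiT (5000/well) were lysed with Nano-Glo HiBiT detection reagent, shaken 10 min at RT, and luminescence read.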

DC50 [1] | BRM HiBit Degradation Maximum measured [1] | DC50 [2] | Dmax [2] | SMILES
100 to 1000 nM | A (‘A’ = Maximum degradation >75%) | 100 to 1000 nM | > 75% | CS(=O)(=O)n1ccc(C(=O)NCC(=O)Nc2nc(-c3cccc(-c4ccnc(C5(C(=O)NCC6CCN(CCOc7ccc8c(c7)C(=O)N(C7CCC(=O)NC7=O)C8=O)CC6)CC5)c4)c3)cs2)c1 (centres unmarked) [Compound 149, N-[[1-(2-[[2-(2,6-dioxopiperidin-3-yl)-1,3-dioxoisoindol-5-yl]oxy]ethyl)piperidin-4-yl]methyl]-1-[4-[3-(2-[2-[(1-methanesulfonylpyrrol-3-yl)formamido]acetamido]-1,3-thiazol-4-yl)phenyl]pyridin-2-yl]cyclopropane-1-carboxamide]
> 10000 nM | C (‘C’ = Maximum degradation <50%) | < 100 nM | 50 to 75% | CS(=O)(=O)n1ccc(C(=O)NCC(=O)Nc2nc(-c3cccc(-c4ccnc(C5(C(=O)N6CCC7(CC6)CC(Oc6ccc8c(c6)C(=O)N(C6CCC(=O)NC6=O)C8=O)C7)CC5)c4)c3)cs2)c1 (centres unmarked) [Compound 151, N-[4-(3-[2-[1-(2-[[2-(2,6-dioxopiperidin-3-yl)-1,3-dioxoisoindol-5-yl]oxy]-7-azaspiro[3.5]nonane-7-carbonyl)cyclopropyl]pyridin-4-yl]phenyl)-1,3-thiazol-2-yl]-2-[(1-methanesulfonylpyrrol-3-yl)formamido]acetamide]
> 10000 nM | C (‘C’ = Maximum degradation <50%) | > 10000 nM | < 50% | CS(=O)(=O)n1ccc(C(=O)NCC(=O)Nc2nc(-c3cccc(-c4ccnc(C5(C(=O)NCCCC#Cc6cccc7c6C(=O)N(C6CCC(=O)NC6=O)C7=O)CC5)c4)c3)cs2)c1 (centres unmarked) [Compound 152, N-[5-[2-(2,6-dioxopiperidin-3-yl)-1,3-dioxoisoindol-4-yl]pent-4-yn-1-yl]-1-[4-[3-(2-[2-[(1-methanesulfonylpyrrol-3-yl)formamido]acetamido]-1,3-thiazol-4-yl)phenyl]pyridin-2-yl]cyclopropane-1-carboxamide]
100 to 1000 nM | A (‘A’ = Maximum degradation >75%) | 100 to 1000 nM | > 75% | CS(=O)(=O)n1ccc(C(=O)NCC(=O)Nc2nc(-c3cccc(-c4ccnc(C5(C(=O)N6CC(CN7CCN(c8ccc9c(c8)C(=O)N(C8CCC(=O)NC8=O)C9=O)CC7)C6)CC5)c4)c3)cs2)c1 (centres unmarked) [Compound 156, N-[4-[3-(2-[1-[3-([4-[2-(2,6-dioxopiperidin-3-yl)-1,3-dioxoisoindol-5-yl]piperazin-1-yl]methyl)azetidine-1-carbonyl]cyclopropyl]pyridin-4-yl)phenyl]-1,3-thiazol-2-yl]-2-[(1-methanesulfonylpyrrol-3-yl)formamido]acetamide]
> 10000 nM | C (‘C’ = Maximum degradation <50%) | > 10000 nM | < 50% | Cc1ncsc1-c1ccc(CNC(=O)[C@@H]2C[C@@H](O)CN2C(=O)[C@@H](NC(=O)CN2CC(C(=O)NCc3cccc(-c4cccc(-c5csc(NC(=O)CNC(=O)c6ccn(S(C)(=O)=O)c6)n5)c4)c3)C2)C(C)(C)C)cc1 [Compound 157, (2S,4R)-4-hydroxy-1-[(2S)-2-[2-[3-([[3-(2-[2-[(1-methan-esulfonyl-pyrrol-3-yl)formamido]acetamido]-1,3-thiazol-4-yl)-[1,1-biphenyl]-3-yl]methyl]carbamoyl)azetidin-1-yl]acetamido]-3,3-dimethylbutanoyl]-N-[[4-(4-methyl-1,3-thiazol-5-yl)phenyl]methyl]pyrr-oledine-2-carboxamide]
> 10000 nM | C (‘C’ = Maximum degradation <50%) | > 10000 nM | < 50% | Cc1ncsc1-c1ccc(CNC(=O)[C@@H]2C[C@@H](O)CN2C(=O)[C@@H](NC(=O)NCc2cccc(-c3cccc(-c4csc(NC(=O)CNC(=O)c5ccn(S(C)(=O)=O)c5)n4)c3)c2)C(C)(C)C)cc1 [Compound 158, (2S,4R)-4-hydroxy-1-[(2S)-2-[([[3-(2-[2-[(1-methanesulfonylpyrrol-3-yl)formamido]acetamido]-1,3-thiazol-4-yl)-[1,1-biphenyl]-3-yl]methyl]carbamoyl)amino]-3,3-dimethylbutanoyl]-N-[[4-(4-methyl-1,3-thiazol-5-yl)phenyl]methyl]pyrrolidine-2-carboxamide]
> 10000 nM | C (‘C’ = Maximum degradation <50%) | > 10000 nM | < 50% | Cc1ncsc1-c1ccc(CNC(=O)[C@@H]2C[C@@H](O)CN2C(=O)[C@@H](NC(=O)C2CC2C(=O)NCc2cccc(-c3cccc(-c4csc(NC(=O)CNC(=O)c5ccn(S(C)(=O)=O)c5)n4)c3)c2)C(C)(C)C)cc1 (stereo partly drawn) [Compound 159, N1-[(2S)-1-[(2S,4R)-4-hydroxy-2-([[4-(4-methyl-1,3-thiazol-5-yl)phenyl]methyl]carbamoyl)pyrrolidin-1-yl]-3,3-dimethyl-1-oxobutan-2-yl]-N2-[[3-(2-[2-[(1-methanesulfonylpyrrol-3-yl)formamido]acetamido]-1,3-thiazol-4-yl)-[1,1-biphenyl]-3-yl]methyl]cyclopropane-1,2-dicarboxamide]
> 10000 nM | C (‘C’ = Maximum degradation <50%) | > 10000 nM | < 50% | Cc1ncsc1-c1ccc(CNC(=O)[C@@H]2C[C@@H](O)CN2C(=O)[C@@H](NC(=O)N2CC(C(=O)NCc3cccc(-c4cccc(-c5csc(NC(=O)CNC(=O)c6ccn(S(C)(=O)=O)c6)n5)c4)c3)C2)C(C)(C)C)cc1 [Compound 160, N1-[(2S)-1-[(2S,4R)-4-hydroxy-2-([[4-(4-methyl-1,3-thiazol-5-yl)phenyl]methyl]carbamoyl)pyrrolidin-1-yl]-3,3-dimethyl-1-oxobutan-2-yl]-N3-[[3-(2-[2-[(1-methanesulfonylpyrrol-3-yl)formamido]acetamido]-1,3-thiazol-4-yl)-[1,1-biphenyl]-3-yl]methyl]azetidine-1,3-dicarboxamide]

SMILES | DC50 [1] | BRM HiBit Degradation Maximum measured [1] | DC50 [2] | Dmax [2]
CS(=O)(=O)n1ccc(C(=O)NCC(=O)Nc2nc(-c3cccc(-c4ccnc(C5(C(=O)N6CCN(CCOc7ccc8c(c7)C(=O)N(C7CCC(=O)NC7=O)C8=O)CC6)CC5)c4)c3)cs2)c1 (centres unmarked) [Compound 150, N-(2-((4-(3-(2-(1-(4-(2-((2-(2,6-dioxopiperidin-3-yl)-1,3-dioxoisoindolin-5-yl)oxy)ethyl)piperazine-1-carbonyl)cyclopropyl)pyridin-4-yl)phenyl)thiazol-2-yl)amino)-2-oxoethyl)-1-(methylsulfonyl)-1H-pyrrole-3-carboxamide] | 100 to 1000 nM | B (‘B’ = Maximum degradation ≥50% and ≤75%) | 100 to 1000 nM | > 75%
Cc1ncsc1-c1ccc(CNC(=O)[C@@H]2C[C@@H](O)CN2C(=O)[C@@H](NC(=O)CCCCCCC(=O)N(C)Cc2cc(-c3cccc(-c4csc(NC(=O)CNC(=O)c5ccn(S(C)(=O)=O)c5)n4)c3)ccn2)C(C)(C)C)cc1 [Compound 153, N-[(2S)-1-[(2S,4R)-4-hydroxy-2-([[4-(4-methyl-1,3-thiazol-5-yl)phenyl]methyl]carbamoyl)pyrrolidin-1-yl]-3,3-dimethyl-1-oxobutan-2-yl]-N′-([4-[3-(2-[2-[(1-methanesulfonylpyrrol-3-yl)formamido]acetamido]-1,3-thiazol-4-yl)phenyl]pyridin-2-yl]methyl)-N′-methyloctanediamide] | 100 to 1000 nM | B (‘B’ = Maximum degradation ≥50% and ≤75%) | 100 to 1000 nM | > 75%
Cc1ncsc1-c1ccc(CNC(=O)[C@@H]2C[C@@H](O)CN2C(=O)[C@@H](NC(=O)CCN2CC(C(=O)NCc3cccc(-c4cccc(-c5csc(NC(=O)CNC(=O)c6ccn(S(C)(=O)=O)c6)n5)c4)c3)C2)C(C)(C)C)cc1 [Compound 154, (2S,4R)-4-hydroxy-1-[(2S)-2-[3-[3-([[3-(2-[2-[(1-methanesulfonylpyrrol-3-yl)formamido]acetamido]-1,3-thiazol-4-yl)-[1,1-biphenyl]-3-yl]methyl]carbamoyl)azetidin-1-yl]propanamido]-3,3-dimethylbutanoyl]-N-[[4-(4-methyl-1,3-thiazol-5-yl)phenyl]methyl]pyrrolidine-2-carboxamide formate] | > 10000 nM | C (‘C’ = Maximum degradation <50%) | > 10000 nM | 
Cc1ncsc1-c1ccc(CNC(=O)[C@@H]2C[C@@H](O)CN2C(=O)[C@@H](NC(=O)CCN2CCC(C(=O)NCc3cccc(-c4cccc(-c5csc(NC(=O)CNC(=O)c6ccn(S(C)(=O)=O)c6)n5)c4)c3)CC2)C(C)(C)C)cc1 [Compound 155, 1-(2-[[(2S)-1-[(2S,4R)-4-hydroxy-2-([[4-(4-methyl-1,3-thiazol-5-yl)phenyl]methyl]carbamoyl)pyrrolidin-1-yl]-3,3-dimethyl-1-oxobutan-2-yl]carbamoyl]ethyl)-N-[[3-(2-[2-[(1-methanesulfonylpyrrol-3-yl)formamido]acetamido]-1,3-thiazol-4-yl)-[1,1-biphenyl]-3-yl]methyl]piperidine-4-carboxamide formate] | > 10000 nM | C (‘C’ = Maximum degradation <50%) | > 10000 nM | 
CS(=O)(=O)n1ccc(C(=O)NCC(=O)Nc2nc(-c3cccc(-c4ccnc(C5(C(=O)NCCOc6ccc7c(c6)C(=O)N(C6CCC(=O)NC6=O)C7=O)CC5)c4)c3)cs2)c1 (centres unmarked) [Compound 161] | 100 to 1000 nM | B (‘B’ = Maximum degradation ≥50% and ≤75%) | 100 to 1000 nM | > 75%
